From ChEMBL document CHEMBL5523719, “Structure-activity relationship study of new carbazole sulfonamide derivatives as anticancer agents with dual-target mechanism” (Eur J Med Chem, 2024)
Active and inactive are the calls of the source. The rule behind the calls is not given here.

Legend:
MDA-MB-231 = assay: Antiproliferation activity against human MDA-MB-231 cells measured after 72 hrs incubation by MTT assay; format: functional, cell-based; settings: MDA-MB-231, 72 h
MIA PaCa-2 = assay: Antiproliferation activity against human MIA PaCa-2 cells measured after 72 hrs incubation by MTT assay; format: functional, cell-based; settings: MIA PaCa-2, 72 h
NCI-H460 = assay: Antiproliferation activity against human NCI-H460 cells measured after 72 hrs incubation by MTT assay; format: functional, cell-based; settings: NCI-H460, 72 h
KB = assay: Antiproliferation activity against human KB cells measured after 72 hrs incubation by MTT assay; format: functional, cell-based
L02 = assay: Antiproliferation activity against human L02 cells measured after 72 hrs incubation by MTT assay; format: functional, cell-based; settings: L02, 72 h
MCF7 [1] = assay: In vivo antitumor activity against human MCF7 cells xenografted in BALB/c mouse assessed as inhibition of tumor growth treated iv every other day for 26 days; format: functional, organism-based; settings: time 26.0 day
MCF7 [2] = assay: In vivo antitumor activity against human MCF7 cells xenografted in BALB/c mouse assessed as decrease in tumor volume treated at 5 mg/kg, iv every other day for 26 days relative to control; format: functional; settings: MCF7, 624 h, time 26 day
MCF7 [3] = assay: In vivo antitumor activity against human MCF7 cells xenografted in BALB/c mouse assessed as decrease in tumor volume treated at 10 mg/kg, iv every other day for 26 days relative to control; format: functional; settings: MCF7, 624 h, time 26 day
[4] = Toxicity in BALB/c mouse xenografted with human MCF7 cells assessed as lesions in heart at 10 mg/kg, iv every other day for 26 days by H and E staining based assay; format: organism-based; settings: in vivo, 624 h, time 26 day
[5] = Toxicity in BALB/c mouse xenografted with human MCF7 cells assessed as lesions in liver at 10 mg/kg, iv every other day for 26 days by H and E staining based assay; format: organism-based; settings: in vivo, 624 h, time 26 day
[6] = Toxicity in BALB/c mouse xenografted with human MCF7 cells assessed as lesions in spleen at 10 mg/kg, iv every other day for 26 days by H and E staining based assay; format: organism-based; settings: in vivo, 624 h, time 26 day
[7] = Toxicity in BALB/c mouse xenografted with human MCF7 cells assessed as lesions in lung at 10 mg/kg, iv every other day for 26 days by H and E staining based assay; format: organism-based; settings: in vivo, 624 h, time 26 day
[8] = Toxicity in BALB/c mouse xenografted with human MCF7 cells assessed as lesions in kidney at 10 mg/kg, iv every other day for 26 days by H and E staining based assay; format: organism-based; settings: in vivo, 624 h, time 26 day
MCF7 [9] = assay: In vivo antitumor activity against human MCF7 cells xenografted in BALB/c mouse assessed as inhibition of Ki-67 expression treated at 10 mg/kg, iv every other day for 26 days; format: functional, organism-based; settings: time 26.0 day
MCF7 [10] = assay: In vivo antitumor activity against human MCF7 cells xenografted in BALB/c mouse assessed as increase in cleaved caspase-3 treated at 10 mg/kg, iv every other day for 26 days; format: functional, organism-based; settings: time 26.0 day

IC50 (MDA-MB-231): 5.72 nM | IC50 (MIA PaCa-2): 14.4 nM | IC50 (NCI-H460): 18.5 nM | IC50 (KB): 36.1 nM
Structure (SMILES): COc1cc(NS(=O)(=O)c2ccc3c(c2)c2ccc(OP(=O)([O-])[O-])cc2n3C)c(OC)cc1Cl.[Na+].[Na+]
IC50 (L02): 55.3 nM | TGI (MCF7 [1]): Dose-Dependent Effect | inhibition in vivo at 5 mg/kg (MCF7 [2]): 56% | inhibition in vivo at 10 mg/kg (MCF7 [3]): 73% | Activity [4]: Non-Toxic | Activity [5]: Non-Toxic | Activity [6]: Non-Toxic | Activity [7]: Non-Toxic | Activity [8]: Non-Toxic | Activity (MCF7 [9]): Active | Activity (MCF7 [10]): Active
